The source of these data is patent publication US4921504A, “4-(N-ethyl-N-2-hydroxyethyl)-amino-1-(2 hydroxyethyl)-amino-2-nitrobenzene and compositions for dyeing hair containing the same” (Wella Aktiengesellschaft, priority 1984, dated 1990).

In brackets after ≈: the same amount, converted by molar mass. Like-named read-outs stand apart in the source and are kept apart here.

A short description of data set [1]: light genuiness. The format is physicochemical. The conditions noted are these: nitro dyes containing compound I.
Data set [2] is described as follows: storage stability of dyes. Type of data set: physicochemical. As to conditions: in dye compositions.
A short description of data set [3]: skin compatibility.
The nature of data set [4]: general toxicological safety. As to conditions: compared with compounds II through VI.
Data set [5] has as its system mouse-lymphoma. The data set can be described thus: mouse-lymphoma-assay. Type of data set: cell-based.
Data set [6] can be described thus: Ames test. The format is cell-based. (In general: The Ames test detects mutagens through reverse mutation in bacteria.)
Data set [7] relates to human-lymphocyte. The data set is described as follows: human-lymphocyte-test. Type of data set: cell-based.
Data set [8] is described as follows: LD50 (toxicity). As to conditions: in vivo.
For data set [9], the system named is yeast cell. The data set can be described thus: yeast cell-mutagenity test. Type of data set: cell-based. An excerpt:
2. yeast cell-mutagenity test

A short description of data set [10]: solubility in water. Type of data set: physicochemical. The source says:
In view of the foregoing, it was most surprising to find the blue nitro dye (compound I), being an isomer of compound III and a homologue of compound VI, has sufficiently different characteristics which cannot be derived from known compounds III, IV, V or VI. The dye (I) in accordance with the present invention has a solubility of about 1.0% in water which facilitates the acquisition of dark shades considerably, particularly, in comparison with compound III. […] Rather, an oil is formed from which the dye can later be supplied during the dyeing process. The alternative of redissolving formed crystals would take too much time and, as a result, such crystals would not, again, be available during the dyeing process.

For data set [11] the following is noted: prior-art compound, cited from earlier work.
For data set [12] the following is noted: prior-art compound; cited from earlier work.
For data set [13] the following is noted: prior-art compound; doubts recently raised regarding safe use; cited from earlier work.
Setting [14] is: in water without also having to dissolve intermediaries (III).

As usually defined, the LD50 is the dose expected to kill half of the subjects tested. High values mean a less toxic substance, low ones a more toxic substance. One may read the solubility as how much of the substance goes into solution per volume. A high value points to a readily soluble substance. With `CCN(CCO)c1ccc(NCCO)c([N+](=O)[O-])c1` [Compound I, 4-(N-ethyl-N-2'-hydroxyethyl)-amino-1-(2"-hydroxyethyl)-amino-2-nitrobenzene], in data set [1], the light genuiness result was “very good”. Moreover, in [2], the storage stability result is “extraordinary”. Also, in data set [3], the skin compatibility entry was “good skin compatibility”. Also, in data set [4], the toxicological safety result was “safe”. Further, the mutagenicity in mouse-lymphoma-assay result in data set [5] is on record as “not mutagenic”. Further, the “mutagenicity in Ames test” value in [6] is on record as “not mutagenic”. For the same compound, the mutagenicity in human-lymphocyte-test result in data set [7] is on record as “not mutagenic”. For the same compound, the LD50 in data set [8] is about 2000 mg/kg. In addition, the “mutagenicity in yeast cell-mutagenity test” value in data set [9] is “not mutagenic”. Further, the “behaviour when exceeding solubility” value in data set [10] (exceeding solubility, an oil is formed) is reported as “does not crystallize”. The same compound had a solubility in [10] (in water) of about 10000 µg/mL (≈ 37.1 mM).

Consider `CCNc1ccc(N(CCO)CCO)cc1[N+](=O)[O-]` [III], for which the solubility in water result in data set [11] (setting [14]) is listed as “below 0.15%”.

Take `O=[N+]([O-])c1cc(N(CCO)CCO)ccc1NCCO` [IV]: the “solubility in water” value in data set [11] is listed as “high solubility”.

`CN(CCO)c1ccc(NCCO)c([N+](=O)[O-])c1` [VI]: the “mutagenic effect in Ames test” value in data set [12] is listed as “mutagenic effect”.

Consider `CNc1ccc(N(CCO)CCO)cc1[N+](=O)[O-]` [V], for which the level of toxicity result in data set [13] is “possibly unacceptable”. The solubility in water result in [11] (setting [14]) is listed as “about 0.5%”.
